Results reported in paper PMC4061505 (Anesthesiology, 2014).
Values joined by “and” are separate entries in the source; they are usually repeats but may differ in a detail not shown here. Identical values can stand only once. Like-named read-outs stand apart in the source and are kept apart here.

Legend:
[1] = test system: monomeric serine racemase (m-SR); assay: Expression of monomeric serine racemase protein in PC-12 cells; type: cell-based, rat; conditions: for Concentration of maximum increase in m-SR protein expression: gradual decline at higher concentrations
mTOR pathway = assay: pmTOR, pAkt, pERK, p4E-BP1 and pp70S6K levels in PC-12 cells; type: cell-based, rat
α7-nAChR [2] = conditions: cited from earlier work
α3β4-nAChR = conditions: cited from earlier work; for IC50: α3β4-nAChR
NMDAR = conditions: cited from earlier work
[3] = test system: mTOR and related proteins; assay: Western blot of phosphorylated mTOR and related proteins in rat brain; conditions: 20 mg·kg^−1 intravenous; for Increase in phosphorylation of mTOR and its downstream targets: rat pre-frontal cortex, 60-min post-administration, p<0.05
[4] = test system: mTOR and related proteins; conditions: cited from earlier work
α7-nAChR [5] = conditions: cited from earlier work; remark: listed apart in the source
[6] = test system: (S)-nicotine-induced currents in PC-12 cells; conditions: cited from earlier work
anesthesia = conditions: cited from earlier work
[7] = Brain tissue concentrations after administration to male Wistar rats
[8] = test system: monomeric serine racemase (m-SR); conditions: PC-12 cells; compound alone; cited from earlier work
[9] = time-dependent, significant in the 20- and 60-min samples
[10] = after (R,S)-ketamine 40 mg·kg^−1 intraperitoneal, 10 min
[11] = after (R,S)-ketamine 40 mg·kg^−1 intraperitoneal, 30 min
[12] = after (R,S)-ketamine 40 mg·kg^−1 intraperitoneal, 60 min
[13] = after (R,S)-ketamine 40 mg·kg^−1 intraperitoneal, 240 min
[14] = after (R,S)-norketamine 20 mg·kg^−1 intravenous, 10 min
[15] = after (R,S)-norketamine 20 mg·kg^−1 intravenous, 20 min
[16] = after (R,S)-norketamine 20 mg·kg^−1 intravenous, 60 min
[17] = after (R,S)-norketamine 20 mg·kg^−1 intravenous, 240 min

SMILES: N[C@]1(c2ccccc2Cl)CCC[C@H](O)C1=O
- Increase in expression of serine racemase ([1]; 0.05nM): ~ 2 fold
- Concentration of maximum increase in m-SR protein expression ([1]; 36 h): 0.05 nM
- Levels of phosphorylated mTOR, 4E-BP1, p70S6K, ERK1/2 and Akt and of m-SR protein (mTOR pathway): significant increases
- Concentration above which pmTOR increase was markedly reduced (mTOR pathway; 60 min): greater than 1 nM
- IC50 (α7-nAChR [2]): < 0.1 µM
- Activity at the α3β4-nAChR (α3β4-nAChR): not active
- IC50 (α3β4-nAChR): > 300 µM
- Activity at the NMDAR (NMDAR): not active
- Relative levels of pERK1/2 and pAkt ([3]; increased in the 20- and 60-min samples): did not reach statistical significance
- Increase in p4E-BP1 [3, 9]: ~ 2.0 fold
- Increase in pmTOR [3, 9]: ~ 2.0 fold
- Increase in pp70S6K [3, 9]: ~ 2.5 fold
- Increase in phosphorylation of mTOR and its downstream targets [3]: > 2 fold

SMILES: CNC1(c2ccccc2Cl)CCCCC1=O (racemic) [(R,S)-ketamine]
- Increase in expression of serine racemase ([1]; 1000nM): ~ 2 fold
- Concentrations with significant increase in m-SR expression (ANOVA) ([1]; 36 h): 600 nM and 1000 nM
- Concentration of maximum increase in m-SR protein expression ([1]; 36 h): 600 nM
- Concentration required to produce the maximum effect on the mTOR pathway and m-SR expression (mTOR pathway): 600 nM
- Levels of phosphorylated mTOR, 4E-BP1, p70S6K, ERK1/2 and Akt and of m-SR protein (mTOR pathway): significant increases
- Concentration above which the increase lost significance (mTOR pathway; 60 min): greater than 2000 nM
- Concentrations eliciting significant increases in protein phosphorylation (mTOR pathway; 60 min): 400 to 600 nM
- Increase in the phosphorylated forms of mTOR pathway proteins ([4]; Wistar rats, peaked at 30–60 min post-administration): ~ 1.5 fold
- Increase in pERK [4]: 1.5 fold
- IC50 (α7-nAChR [5]): 20 µM
- IC50 (α3β4-nAChR): 3 µM
- IC50 [6]: 5 µM
- Anesthetic activity (anesthesia; rat): produce anesthesia
- Rat brain tissue conc. of (2S,6S;2R,6R)-HNK [7, 10]: 30 ± 5 µM/g
- Rat brain tissue conc. of (R,S)-Ket [7, 10]: 137 ± 6 µM/g
- Rat brain tissue conc. of (R,S)-norKet [7, 10]: 21 ± 8 µM/g
- Rat brain tissue conc. of (2S,6S;2R,6R)-HNK [7, 11]: 21 ± 8 µM/g
- Rat brain tissue conc. of (R,S)-Ket [7, 11]: 52 ± 44 µM/g
- Rat brain tissue conc. of (R,S)-norKet [7, 11]: 34 ± 6 µM/g
- Rat brain tissue conc. of (2S,6S;2R,6R)-HNK [7, 12]: 25 ± 5 µM/g
- Rat brain tissue conc. of (R,S)-Ket [7, 12]: 19 ± 9 µM/g
- Rat brain tissue conc. of (R,S)-norKet [7, 12]: 16 ± 4 µM/g
- Rat brain tissue conc. of (2S,6S;2R,6R)-HNK [7, 13]: 11 ± 5 µM/g
- Rat brain tissue conc. of (R,S)-Ket [7, 13]: 0.6 ± 0.1 µM/g
- Rat brain tissue conc. of (R,S)-norKet [7, 13]: 1.3 ± 0.3 µM/g

SMILES: NC1(c2ccccc2Cl)CCCCC1=O (racemic) [(R,S)-norketamine]
- Increase in expression of serine racemase ([1]; 10nM): ~ 2 fold
- Concentration of maximum increase in m-SR protein expression ([1]; 36 h): 10 nM
- Levels of phosphorylated mTOR, 4E-BP1, p70S6K, ERK1/2 and Akt and of m-SR protein (mTOR pathway): significant increases
- Concentration above which the increase lost significance (mTOR pathway; 60 min): greater than 250 nM
- IC50 (α3β4-nAChR): 9 µM
- Anesthetic activity (anesthesia; rat): produce anesthesia
- Rat brain tissue conc. of (2S,6S;2R,6R)-HNK [7, 14]: 16 ± 3 µM/g
- Rat brain tissue conc. of (R,S)-norKet [7, 14]: 88 ± 8 µM/g
- Rat brain tissue conc. of (2S,6S;2R,6R)-HNK [7, 15]: 16 ± 3 µM/g
- Rat brain tissue conc. of (R,S)-norKet [7, 15]: 51 ± 4 µM/g
- Rat brain tissue conc. of (2S,6S;2R,6R)-HNK [7, 16]: 8.9 ± 0.7 µM/g
- Rat brain tissue conc. of (R,S)-norKet [7, 16]: 20 ± 7 µM/g
- Rat brain tissue conc. of (2S,6S;2R,6R)-HNK [7, 17]: 2.1 ± 0.4 µM/g
- Rat brain tissue conc. of (R,S)-norKet [7, 17]: 1.0 ± 0.1 µM/g
- Relative pAkt levels [3]: not impacted
- Levels of phosphorylated forms of mTOR, pp70S6K and p4E-BP1 ([3]; 20- and 60-min samples): significant increases
- Increase in pmTOR levels ([3]; 20-min sample): 15 fold
- Increase in pmTOR levels ([3]; 60-min sample): 25 fold
- Increase in pERK level ([3]; significant): ~ 6 fold
- Increase in phosphorylation of mTOR and its downstream targets [3]: > 25 fold

SMILES: N[C@@]1(c2ccccc2Cl)CCC[C@@H](O)C1=O [(2R,6R)-hydroxynorketamine]
- IC50 (α7-nAChR [2]): < 0.1 µM
- Activity at the α3β4-nAChR (α3β4-nAChR): not active
- Activity at the NMDAR (NMDAR): not active

SMILES: N[C@@]1(c2ccccc2Cl)CCC[C@@H](O)C1=O [(2S,6S;2R,6R)-hydroxynorketamine]
- Anesthetic activity (anesthesia; rat): no anesthetic effect
- Anesthetic activity (anesthesia; rat; ref 9;2R,6R)-Hydroxynorketamine): lacks anesthetic activity

SMILES: CN1CCC[C@H]1c1cccnc1 [(S)-nicotine]
- Effect on the phosphorylation of pmTOR, p4E-BP1, pp70S6K, pERK1/2 and pAkt (mTOR pathway; (S)-nicotine alone, 2 μM, 1 h): no effect
- Effect on expression of m-SR [8]: no effect

SMILES: CCN1C[C@]2(COC(=O)c3ccccc3N3C(=O)C[C@H](C)C3=O)CC[C@H](OC)[C@@]34[C@@H]5C[C@H]6[C@H](OC)[C@@H]5[C@](O)(C[C@@H]6OC)[C@@](O)([C@@H](OC)[C@H]23)[C@@H]14 [methyllycaconitine]
- Levels of phosphorylated mTOR, 4E-BP1, p70S6K, ERK1/2 and Akt and of m-SR protein (mTOR pathway): significant increases
- Effect on expression of m-SR [8]: significantly increases
